Numbered stars: 1 amine (or outer) side, 2 acyl side, 3 side chain; on linkers, the order of the positions; unused ones are H or OH. Square brackets hold non-standard residues; d marks the D form. Peptide text beside a SMILES is read from it. ξ: configuration not given here. Gly(N-piperonyl) = O=C(O)CNCc1ccc2c(c1)OCO2; X1 = CC(c1ccccc1)N(CC(=O)[*:2])[*:1]; Nlys = NCCCCNCC(=O)O; ξK = NCCCCC(N)C(=O)O; ξM = CSCCC(N)C(=O)O; Nme = COCCNCC(=O)O
Legend:
Format in all cases: cell-based
ALDH+ H358 CSCs = assay: On-bead binding of sorted ALDH+ and ALDH− H358 cells to PCS2-carrying beads
Procedure: On-bead binding assay: 50 mg of peptoid-carrying tentagel beads or 1.3×10^6 of peptoid-carrying magnetic beads were equilibrated in 2 mL RPMI containing 5% FBS and 3% BSA (Sigma) for 1 hour by shaking. The beads can then be equilibrated with 5×10^6 of each cancer cell type listed above in 2 mL RPMI containing 5% FBS and 1% BSA at room temperature for 15-60 minutes for binding. The cell-bound beads are then pulled down with a magnet and washed with RPMI to cleanly harvest bound cells. Unbound cells were collected separately for further confirmations.
To confirm the binding specificity of PCS2 to CSCs, sorted ALDH+ H358 CSCs (red stained) and ALDH− H358 cells (green stained) were exposed to PCS2-carrying beads. […] The same assay was repeated after allowing these CSC population to grow for 2 weeks, where by then the CSC percentage in the ALDH+ sorted population became low, the number of cells bound was very low (FIG. 4E), indicating PCS2 recognizes a unique target specific for CSCs, but not other cancer cells.

H358 and HCC4017 cells = assay: ALDEFluor staining of PCS2-bound and PCS2-unbound fractions
Procedure: To confirm that the peptoid-bound fraction was CSCs, a subset of PCS2-bound and PCS2-unbound fractions from H358 cells were generated and stained with the ALDEFLuor kit, which produces green fluorescence when the ALDH protein is active in a cell, and DAPI, and then analyzed them under a fluorescence microscope. […] An equal number of PCS2-bead sorted cells from the H358 and HCC4017 cell lines were also treated with the Aldefluor kit and their relative fluorescence was evaluated using a spectrophotometer (FIG. 7B & C).

H358 cells = assay: Colony formation assay of bead-bound, unbound and unsorted fractions; settings: 2 weeks of growth, crystal violet
Procedure: (§1) A colony formation assay was performed on the untreated H358 cells and PCS2-bound and PCS2-unbound fractions to further confirm that the cells bound by PCS2 were CSCs. About 500 cells from each of the three fractions were plated into […] wells and grown for 2 weeks. The resulting colonies were then stained with crystal violet.
as §1, with “300-500” for “500”, “cell group” for “the three fractions”, “weeks or until colonies were visible by eye.” for “weeks.”, “violet for approximately 5 minutes and colonies were counted using the MOESM software program, and confirmed though microscopic counting.” for “violet.”
It was determined that the presence of plectin contributes to colony formation and wound healing potential of H358 cells. Plectin antibody-coated magnetic-bead bound fractions form a higher number of colonies compared to unbound and unseparated fraction in the clonogenicity assay in H358 cells The clonogenecity after plectin knockdown was then tested in H358, H460, and H2073 cells (FIG. 25C, 25D). Knockdown of plectin decreases colony formation in H358, H460 and H2073 cells. Knockdown of plectin leads to a decrease in mobility and scratch healing in H358 cells. […]

COCCNCC(=O)N(CCCCN)CC(=O)N(CC(=O)N(CC(=O)N(CCCCN)CC(=O)NC(CCCCN)C(=O)N[C@H](CCCCN)C(=O)NC(CCSC)C(N)=O)C(C)c1ccccc1)Cc1ccc2c(c1)OCO2 (some centres unmarked) [PCS2] (H-[Nme][Nlys][Gly(N-piperonyl)][X1][Nlys][ξK][dK][ξM]-NH2)
number of cells bound to PCS2-beads (ALDH+ H358 CSCs; ALDH+ sorted population after 2 weeks of growth): very low | binding of PCS2-beads to sorted ALDH+ (red) vs ALDH− (green) H358 cells (ALDH+ H358 CSCs; freshly sorted cells): only bound significantly to the red CSCs | ALDEFluor green fluorescence of PCS2-bound fraction (H358 and HCC4017 cells; H358, fluorescence microscope, vs unbound or untreated fractions): significantly stronger green fluorescence | relative ALDEFluor fluorescence of PCS2-bead sorted cells (H358 and HCC4017 cells; H358 and HCC4017, spectrophotometer): fluorescence was higher in bound cells | number of colonies from bead-bound fraction vs unbound or unsorted fractions (H358 cells): significantly higher number of colonies

Source: patent publication US11865157B2, “Compositions and methods of targeting cancer stem cells” (University of Houston System, priority 2016, dated 2024)
